{"source": "patent US20110136883A1", "about": "“GRANULATION OF ACTIVE PHARMACEUTICAL INGREDIENTS” (LEK PHARMACEUTICALS D.D., priority 2008, published 2011)", "assay_type_in_all_cases": "physicochemical", "key": {"[1]": {"experiment": "Physical properties of bulk powder / final granulate (moisture, densities, compressibility, flowability, angle of repose)", "method": "Therefore, an oral pharmaceutical dosage needs a high dose of eprosartan mesylate to be incorporated into the pharmaceutical formulation in order to achieve the desired biological effect (here: significant reduction of blood pressure). The recommended daily starting and usual maintenance dose of eprosartan mesylate when used as monotherapy is 735.8 mg, equivalent to 600 mg eprosartan, available as the commercial Teveten 600 mg tablets. Therefore, the amount of excipients, required to achieve satisfactory technological properties (i.e. flowability, compressibility) should be the least possible to keep the weight of the tablet as low as possible (i.e. less than 1000 mg). Solubility, flowability or compressibility can be determined by using known methods in the art, for example the methods explained in the European Pharmacopoeia, 6th Edition. Larger tablets are in the light of patient compliance less preferred. WO 2006/052461 A1 proposes to enhance bioavailability of eprosartan by addition of substantial amounts of a solubilizer and an emulsifier.\nPhysical properties of briquetting powder as well as final mixture are important for a successful technological procedure using NAMADG.\nFurther, the impact of various nonaqueos liquid excipients on the formulation of Eprosartan tablets obtained from Examples 3 to 7 (cf. Tables 2 and 3), referring to a matrix of 1000 mg (mass after NAMADG+briquetting+sieving+blending), are summarized in Table 4."}, "Hygroscopicity": {"experiment": "Hygroscopicity", "conditions": "at over 60% RH", "method": "Hygroscopicity of an API or excipient can be measured by methods known to a skilled person. Mainly, such methods comprise determining the mass of small amounts of sample (i.e. 5-10 mg) as a function of time, while varying the controlled relative humidity and/or temperature in the environment. Data on hygroscopicity of mainly used excipients can be obtained from Handbook of Pharmaceutical Excipients, 4th edition, Rowe R C, Sheskey P J, Weller P J, eds.; Pharmaceutical Press and American Pharmaceutical Association, London-Washington, UK-USA, 2003."}, "[2]": {"experiment": "X-ray diffraction check of eprosartan mesylate form (physical stability during processing)", "conditions": "ambient temperature and humidity used throughout the NAMADG-based method", "method": "In order to test the ability of the NAMADG process principle according to the present invention for preparing tablets without occurrence different polymorphic forms of the API in the product, a placebo powder without API and anhydrous eprosartan mesylate processed according to Examples 2 to 7 were investigated. All examples were checked for eprosartan form. For comparison tests were conducted after conventional wet granulation conditions.\nAs a result, physical stability of the eprosartan mesylate was proven during processes when using the most critical API form, i.e. the anhydrate. […] The final tablet form and placebo powder were analyzed by X-ray diffraction (XRD) pattern to confirm presence of anhydrous form of eprosartan mesylate. More generally, X-ray diffraction (XRD) pattern can be obtained by methods known in the art, for example using Philips X'Pert PRO diffractometer with X'Celerator detector while exposing the searched material to CuKa radiation."}, "[3]": {"conditions": "bulk eprosartan, particle size <10μ"}}, "data": [{"smiles": "CCCCc1ncc(/C=C(\\Cc2cccs2)C(=O)O)n1Cc1ccc(C(=O)O)cc1", "note": "[Bulk eprosartan]", "values": [{"measurement": "Angle of repose (°)", "setting": "[1]; [3]", "value": ">43", "unit": "°"}, {"measurement": "Compressibility (%)", "setting": "[1]; [3]", "value": ">30", "unit": "%"}, {"measurement": "Flow density", "setting": "[1]; [3]", "value": ">4.00", "unit": "mL/g"}, {"measurement": "Moisture (%)", "setting": "[1]; [3]", "value": "0.1-0.5%"}, {"measurement": "Tapped density", "setting": "[1]; [3]", "value": ">3.00", "unit": "mL/g"}, {"measurement": "flowability", "setting": "[1]; [3]", "value": "<0.10", "unit": "g/s"}]}, {"smiles": "CCCCc1ncc(/C=C(\\Cc2cccs2)C(=O)O)n1Cc1ccc(C(=O)O)cc1.CS(=O)(=O)O", "note": "[eprosartan mesylate, (E)-α-[2-n-butyl-1-[(4-carboxyphenyl)methyl]-1H-imidazol-5-yl]methylene-2-thiophenepropionic acid monomethanesulfonate]", "values": [{"measurement": "flowability", "setting": "[1]; drug per se, sticking on punches", "value": "below 0.15 g/sec"}, {"measurement": "hygroscopicity", "setting": "Hygroscopicity", "value": "hygroscopic"}, {"measurement": "physical and chemical stability", "setting": "[2]", "value": "physically and chemically stable"}]}]}
